Assay results taken from ChEMBL document CHEMBL1126104, “Synthesis and antiviral activity of some new S-adenosyl-L-homocysteine derivatives” (1992).
Values after ≈ are worked out from the molar mass of the structure shown.

Assays:
[1] = test system: Human alphaherpesvirus 1; experiment: Antiviral activity against HSV-1(KOS) strain in primary rabbit kidney (PRK) / embryonic skin-muscle (E6SM) fibroblast culture lines; assay type: functional; details: Human alphaherpesvirus 1, Muscle tissue
[2] = test system: Human alphaherpesvirus 2; experiment: Antiviral activity against HSV-2(G) strain in primary rabbit kidney (PRK) / embryonic skin-muscle (E6SM) fibroblast culture lines; assay type: functional; details: Human alphaherpesvirus 2, Muscle tissue
[3] = test system: Vesicular stomatitis virus; experiment: Antiviral activity against vesicular stomatitis virus (VSV) in HeLa cell culture lines,; assay type: functional
[4] = test system: Poliovirus 1; experiment: Antiviral activity against polio virus type 1 in HeLa cell culture lines; assay type: functional; details: Enterovirus C
[5] = test system: Coxsackievirus B4; experiment: Antiviral activity against coxsackie B4 in Vero cell culture lines; assay type: functional; details: Enterovirus B
[6] = test system: Vesicular stomatitis virus; experiment: Antiviral activity against vesicular stomatitis virus (VSV) in primary rabbit kidney (PRK) / embryonic skin-muscle (E6SM) fibroblast culture lines; assay type: functional; details: Muscle tissue
[7] = test system: Sindbis virus; experiment: Antiviral activity against sindbis virus in Vero cell culture lines; assay type: functional
[8] = test system: Human immunodeficiency virus 1; experiment: Antiviral activity against (HIV-1) in MT-4 cells Value in parentheses is inhibitory concentration for cell growth (MT-4); assay type: functional, MT4
[9] = test system: Coxsackievirus B4; experiment: Antiviral activity against coxsackie B4 virus in HeLa cell culture lines; assay type: functional; details: Enterovirus B
[10] = test system: Semliki Forest virus; experiment: Antiviral activity against semliki forest virus (SFV) in Vero cell culture lines; assay type: functional
[11] = test system: Mammalian orthoreovirus 1; experiment: Antiviral activity against reovirus type 1 in Vero cell culture lines; assay type: functional
[12] = test system: Human respirovirus 3; experiment: Antiviral activity against parainfluenza virus type 3 in Vero cell culture lines; assay type: functional
[13] = test system: Vaccinia virus; experiment: Antiviral activity against vaccinia virus (VV) in primary rabbit kidney (PRK) / embryonic skin-muscle (E6SM) fibroblast culture lines; assay type: functional; details: Orthopoxvirus vaccinia, Muscle tissue

Compound | MIC [1] [µg/mL] | MIC [2] [µg/mL] | MIC [3] [µg/mL] | MIC [4] [µg/mL] | MIC [5] [µg/mL] | MIC [6] [µg/mL] | MIC [7] [µg/mL] | MIC [8] [µg/mL] | MIC [9] [µg/mL] | MIC [10] [µg/mL] | MIC [11] [µg/mL] | MIC [12] [µg/mL] | MIC [13] [µg/mL]
CC(C)OC(=O)C(CCSC[C@H]1OC(n2ccc3c(N)ncnc32)[C@H](O)[C@@H]1O)NC(=O)C(F)(F)F (some centres undefined) | 20 (≈ 38.3 µM) | 10 (≈ 19.2 µM) | 20 (≈ 38.3 µM) | > 100 | > 50 | 5 (≈ 9.59 µM) | > 70 | > 4 | > 100 | > 100 | > 50 | > 50 | 1 (≈ 1.92 µM)
CCOC(=O)C(CCSC[C@H]1OC(n2ccc3c(N)ncnc32)[C@H](O)[C@@H]1O)NC(C)=O (some centres undefined) | 70 (≈ 154 µM) | 20 (≈ 44.1 µM) | > 20 | 70 (≈ 154 µM) | 20 (≈ 44.1 µM) | 5 (≈ 11 µM) | > 70 | > 4 | 70 (≈ 154 µM) | > 100 | > 30 | > 40 | 15 (≈ 33.1 µM)
Nc1ncnc2c([C@H]3C[C@@H](O)[C@@H](CO)O3)n[nH]c12 | > 400 | > 400 | > 400 | > 400 | 300 (≈ 1190 µM) | > 400 | > 400 | > 100 | > 400 | > 400 | > 400 | > 400 | > 400
Nc1ncnc2c1ncn2[C@@H]1O[C@H](CSCCC(N)C(=O)O)C[C@H]1O (some centres undefined) | > 100 | > 100 | > 200 | > 200 | > 200 | > 100 | > 200 | > 100 | > 200 | > 100 | > 200 | > 200 | > 200
Nc1ncnc2c(C3O[C@H](CSCCC(N)C(=O)O)[C@@H](O)[C@H]3O)n[nH]c12 (some centres undefined) | 200 (≈ 520 µM) | 400 (≈ 1040 µM) | 150 (≈ 390 µM) | > 400 | > 100 | 20 (≈ 52 µM) | > 100 | > 4 | > 400 | > 100 | > 100 | 30 (≈ 78 µM) | 100 (≈ 260 µM)
Nc1nccc2c1ncn2[C@@H]1O[C@H](CO)C[C@H]1O | > 100 | 70 (≈ 280 µM) | > 40 | > 40 | > 100 | > 100 | > 100 | > 20 | > 40 | > 100 | > 100 | > 100 | > 40
CCOC(=O)C(CCSC[C@H]1OC(n2ccc3c(N)ncnc32)[C@H](O)[C@@H]1O)NC(=O)C(F)(F)F (some centres undefined) | 7 (≈ 13.8 µM) | 10 (≈ 19.7 µM) | 4 (≈ 7.88 µM) | 20 (≈ 39.4 µM) | 7 (≈ 13.8 µM) | 2 (≈ 3.94 µM) | > 20 | > 4 | 20 (≈ 39.4 µM) | > 40 | > 20 | > 20 | 7 (≈ 13.8 µM)
Nc1nccc2c1ncn2[C@H]1CC[C@@H](CO)O1 | > 200 | > 100 | > 200 | > 200 | > 100 | > 100 | > 100 | > 100 | > 200 | > 100 | > 100 | > 100 | > 100
Nc1ncnc2c(C3O[C@H](CCl)[C@@H](O)[C@H]3O)n[nH]c12 (some centres undefined) | > 200 | > 200 | > 200 | > 400 | 70 (≈ 245 µM) | > 400 | > 100 | > 100 | > 400 | > 100 | > 100 | 70 (≈ 245 µM) | 300 (≈ 1050 µM)
CCCCOC(=O)C(N)CCSC[C@H]1OC(n2ccc3c(N)ncnc32)[C@H](O)[C@@H]1O (some centres undefined) | 20 (≈ 45.5 µM) | > 10 | 7 (≈ 15.9 µM) | > 100 | > 200 | 20 (≈ 45.5 µM) | > 200 | > 1.6 | > 40 | > 200 | 70 (≈ 159 µM) | 150 (≈ 341 µM) | 2 (≈ 4.55 µM)
Nc1nccc2c1ncn2[C@@H]1O[C@H](CSCCC(N)C(=O)O)C[C@H]1O (some centres undefined) | > 400 | > 400 | > 400 | > 400 | > 400 | > 200 | > 400 | > 100 | > 400 | > 400 | > 400 | > 400 | > 400
CC(C)OC(=O)C(N)CCSC[C@H]1OC(n2ccc3c(N)ncnc32)[C@H](O)[C@@H]1O (some centres undefined) | > 10 | > 10 | 7 (≈ 16.5 µM) | > 100 | > 100 | 7 (≈ 16.5 µM) | > 40 | > 1.6 | > 40 | > 100 | > 40 | 20 (≈ 47 µM) | 0.2 (≈ 0.47 µM)
NC(=O)c1ncn([C@@H]2O[C@H](CO)[C@@H](O)[C@H]2O)n1 [RIBAVIRIN] | > 400 | > 400 | 20 (≈ 81.9 µM) | 70 (≈ 287 µM) | > 70 | 50 (≈ 205 µM) | 200 (≈ 819 µM) | > 20 | 40 (≈ 164 µM) | 200 (≈ 819 µM) | 40 (≈ 164 µM) | 70 (≈ 287 µM) | 30 (≈ 123 µM)
Nc1ncnc2c([C@@H]3O[C@H](CSCCC(N)C(=O)O)C[C@H]3O)n[nH]c12 (some centres undefined) | > 40 | > 40 | > 40 | > 40 | > 40 | > 40 | > 40 | > 100 | > 40 | > 40 | > 40 | > 40 | > 40
COCC(=O)NC(CCSC[C@H]1OC(n2ccc3c(N)ncnc32)[C@H](O)[C@@H]1O)C(=O)O (some centres undefined) | > 400 | > 400 | > 400 | > 400 | > 400 | > 20 | > 400 | > 200 | > 400 | > 400 | > 400 | > 400 | > 400
COCC(=O)NC(CCSC[C@H]1OC(n2ccc3c(N)ncnc32)[C@H](O)[C@@H]1O)C(=O)OC(C)C (some centres undefined) | > 150 | 70 (≈ 141 µM) | 100 (≈ 201 µM) | > 200 | > 100 | 20 (≈ 40.2 µM) | > 200 | > 100 | > 200 | > 200 | > 200 | > 200 | 7 (≈ 14.1 µM)
CC(C)(C)C(=O)ONC(CCSC[C@H]1OC(n2ccc3c(N)ncnc32)[C@H](O)[C@@H]1O)C(=O)OCC[Si](C)(C)C (some centres undefined) | > 10 | > 10 | > 40 | > 40 | 70 (≈ 120 µM) | > 10 | > 40 | > 8 | > 40 | > 40 | > 40 | > 40 | 2 (≈ 3.43 µM)
Nc1ncnc2c1ccn2C1O[C@H](CSCCC(NC(=O)C(F)(F)F)C(=O)O)[C@@H](O)[C@H]1O (some centres undefined) | > 200 | > 200 | > 400 | > 400 | > 400 | > 200 | > 400 | > 20 | > 400 | > 400 | > 400 | > 400 | 20 (≈ 41.7 µM)
